This note sets out measurements from patent publication US4228304A, “Novel cyclohexanecarboxylic acid and its derivatives” (Hisamitsu Pharmaceutical Co. Inc., priority 1977, dated 1980).

Structures are written as SMILES. Counter-ions that a name gives are not always drawn.

One may read the Inhibition as the percentage by which the read-out fell short of the control. Low readings indicate a response near the control, high ones a response far below the control. For orientation: LD50 means the dose expected to kill half of the subjects tested.

The nature of one data set: Emulsification test. In kind it is physicochemical. As to conditions: 10 ml of 0.25% solution of the salt + 10 ml toluene, 40° C., 15 minutes standing. As to the method:
(§1) (6) Emulsification test and determination of surface tention
They were emulsified in the test tube by turning it upside down repeatedly for 30 times at 40° C. and were allowed to stand for 15 minutes. After the standing the separated volume of aqueous layer was measured.

Data set [1] can be described thus: Determination of surface tension. Conditions: 0.25% solution of the salt, Ring method, 25° C. Format: physicochemical. The protocol:
as §1
As the structure of the compounds of the present invention is comparatively, similar to Amisoft, HS-11, a sort of Amisoft, which is mixture of 70% of N-stearoyl-L-glutamic acid monosodium salt and 30% of N-palmitoyl-L-glutamic acid monosodium salt was selected for the tests. The surface activity and the surface tension of the said HS-11 and the compounds of the present invention were measured and determined respectively, and those comparative results were shown in Table VII.
(2) Determination of surface tension
The 0.25% solution of the salt of each compound was determined by Ring method at 25° C.

Data set [2] concerns Picryl Chloride induced contact dermatitis. Description: Picryl Chloride induced contact dermatitis. Format: in vivo, mouse (ddY strain). Conditions: Mus musculus, po; for inhibition in vivo at 100 mg/kg: orally, ear swelling 24 hours after second challenge. As to the method:
(3) Picryl Chloride induced contact dermatitis
At first 0.1 ml of 7% picryl chloride-ethanol solution was applied to skin of the depilated abdomens (area 2.5×15 mm) of ddY-strain male mice (body weight 20-22 g). After one week each 0.02 ml of 1% picryl chloride-olive oil solution was applied topically to the ears of the mouse. […] After three days 0.1 ml of 7% picryl chloride-ethanol solution was applied again to the depilated abdomens of the mice. After one week, each 0.02 ml of 1% picryl chloride-olive oil solution per ear were applied topically to the bilateral ears, and at same time, the test compounds were administered orally. Immediately before and 24 hours after the second challenge, the thickness of the ears was measured and the swelling was calculated. The percent inhibitions were calculated by the ratio of the each swelling to the control.

Data set [3] has as its system rat adjuvant polyarthritis. Description: Effect on rat adjuvant polyarthritis. Format: in vivo, rat (Sprague Dawley strain). As to conditions: oral daily: Compound No. 1 200 mg/kg, Ibuprofen 50 mg/kg, Prednisolone 0.5 mg/kg. The protocol:
(5) Effect on rat adjuvant polyarthritis
A group of eight to ten male Sprague Dawley strain rats (body weight 240-280 g) were used. 0.1 ml of Complete Freuind's adjuvant (CFA, Mycobacterium butyricum, 100 mg/10 cc) was injected intradermally to the right hind sole.

The subject of data set [4] is passive cutaneous anaphylaxis in rat. Description: Homologeous passive cutaneous anaphylaxis in rat. Conditions: orally, exuded pigment vs control. In kind it is in vivo, rat (Wistar strain). As to the method: (2) Homologeous passive cutaneous anaphylaxis in rat Each test compound suspended in 0.5% tragacanth gum-distilled water was administered orally to a group of five male Wistar strain rats (body weight 150-200 g). After one hour 0.1 ml of 5% anti-Dinitrophinol conpled Ascaris rat IgE serum-physiological sodium chloride solution was injected intradermally to dorsum of the rat. […] The animals were sacrificed by decapitation 30 minutes after the injection. Thereafter the skin of the animals were removed and the amount of the pigment exuded into the inflamed skin was determined. The percent inhibitions were calculated by the ratio of the amounts of exuded pigments to the control.

Data set [5] concerns lung fragment of guinea pig. Description: Mediator (histamine) release on lung fragment of guinea pig. Format: cell-based, guinea pig (Hartley strain). As to conditions: 10^-4 g/ml. The protocol:
(4) Mediator release on lung fragment of guinea pig.
A group of Hartley strain male guinea pigs (body weight 250-300 g) were administered intraperitoneally anti-BPO-BGG IgE serum. The animals were sacrificed by decapitation, and those sensitized lungs were isolated for use. […] Following 10 minute incubation, the amount of the released histamine were determined by bioassay.

A further data set in a line: Acute toxicity (rat). As to conditions: in vivo, po. The protocol: Each test compound suspended in 0.5% tragacanth gum-saline was administered orally, subcutaneously or intraperitoneally to animals ddY strain mouse and Wistar strain rats. The 50% lethal dose and the 95% confidence limit were calculated by Litchfield-Wilcoxon's method from the death of animals in 3 weeks following administration.

With `CC(C)CCC[C@H]1CC[C@H](C(=O)NCCCCCC(=O)O)CC1` [Compound No. 42 (sodium salt)], the “Separated volume of aqueous layer” value in the data set “Emulsification test” was 9.5 mL. Moreover, the “Surface tension γ” value in data set [1] was 38.8 dyn/cm.

As for `CC(C)CCC[C@H]1CC[C@@](C)(C(=O)N[C@@H](C)C(=O)O)CC1` [compound 5], in data set [2], the inhibition in vivo at 100 mg/kg stood at 32%.

In data set [2], `CC(C)CCC[C@H]1CC[C@@](C)(C(=O)NCCCC(=O)O)CC1` [compound 13] yielded an inhibition in vivo at 100 mg/kg of 40%.

In data set [2], `CC(C)CCC[C@H]1CC[C@](C)(C(=O)NCC(=O)O)CC1` [compound 21, N-(trans-4-isohexyl-1-methylcyclohexanecarbonyl)-glycine] had an inhibition in vivo at 100 mg/kg of 53%.

`CSCC[C@H](NC(=O)[C@]1(C)CC[C@H](CCCC(C)C)CC1)C(=O)O` [Compound No. 17] gave an inhibition in vivo at 100 mg/kg in data set [2] of 50%.

On to `CC(C)CCC[C@H]1CC[C@@](C)(C(=O)N[C@@H](CCC(=O)O)C(=O)O)CC1` [Compound No. 15 (monosodium salt)], for which, in the data set “Emulsification test”, the “Separated volume of aqueous layer” value is 9.3 mL. For the same molecule, in data set [1], the “Surface tension γ” value is 42.3 dyn/cm.

Consider `CC(C)CCC[C@H]1CC[C@@](C)(C(=O)N[C@@H](CS)C(=O)O)CC1` [compound 18], for which the inhibition in vivo at 100 mg/kg in data set [2] amounted to 27%.

For `CCCC(NC(=O)[C@]1(C)CC[C@H](CCCC(C)C)CC1)C(=O)O` (stereo partly drawn) [compound 9], the inhibition in vivo at 100 mg/kg in data set [2] was 47%.

Consider `CC(C)Cc1ccc(C(C)C(=O)O)cc1` (stereo not drawn) [Ibuprofen], for which the “Swelling percent of left hind paw (non-treatment of CFA)” value is reported as -1.7±1.3% in data set [3] (day 0); -2.4±1.0% in data set [3] (day 1); -2.3±1.5% in data set [3] (day 4); 1.5±1.8% in data set [3] (day 7); 7.4±1.8% in data set [3] (day 10); 12.5±1.5% in data set [3] (day 14). Besides, the “Swelling percent of left hind paw (non-treatment of CFA)” value in data set [3] (day 17) is 8.5±1.5%; in data set [3] (day 21) it was 8.5±2.0%. Also, the “Swelling percent of right hind paw (treatment of CFA)” value (shortened to “Swelling percent of right hind paw”) in data set [3] (day 0) came out at 118.6± 5.7%; in data set [3] (day 1), 98.1± 6.1%; in data set [3] (day 4), 204.7±11.6%; in data set [3] (day 7), 181.7±14.8%; in data set [3] (day 21), 138.5±12.6%.

For the molecule `CC[C@H](C)[C@H](NC(=O)[C@]1(C)CC[C@H](CCCC(C)C)CC1)C(=O)O` [compound 8], in data set [2], the inhibition in vivo at 100 mg/kg amounted to 41%.

`CC(C)CCC[C@H]1CC[C@@](C)(C(=O)NCC(=O)O)CC1` [Compound No. 2 (potassium salt)]: in the data set “Emulsification test”, the “Separated volume of aqueous layer” value amounted to 9.5 mL. In addition, the “Surface tension γ” value in data set [1] was found to be 39.5 dyn/cm.

In turn, `CCCCC(NC(=O)[C@]1(C)CC[C@H](CCCC(C)C)CC1)C(=O)O` (stereo partly drawn) [compound 11] registered an inhibition in vivo at 100 mg/kg in data set [2] of 37%.

In turn, `CCC(NC(=O)[C@]1(C)CC[C@H](CCCC(C)C)CC1)C(=O)O` (stereo partly drawn) [Compound No. 12] returned an inhibition in vivo at 100 mg/kg in data set [2] of 27%.

For `C[C@]12C=CC(=O)C=C1CC[C@@H]1[C@@H]2[C@@H](O)C[C@@]2(C)[C@H]1CC[C@]2(O)C(=O)CO` [Prednisolone], the Inhibition in data set [4] (5 mg/kg) stood at 42%. Further, the inhibition in vivo at 5 mg/kg in data set [2] (24 h, read-out: Inhibition) is 32%. The “inhibition (released histamine)” value in data set [5] worked out at 4.0%. Also, the “Swelling percent of left hind paw (non-treatment of CFA)” value in data set [3] (day 0) is given as -1.1±1.0%; in data set [3] (day 1), -1.0±1.0%; in data set [3] (day 4), -1.7±1.1%; in data set [3] (day 7), 5.7±1.9%; in data set [3] (day 10), 4.5±2.9%; in data set [3] (day 14), 12.5±2.4%. The “Swelling percent of left hind paw (non-treatment of CFA)” value was 9.8±1.4% in data set [3] (day 17) and 7.1±1.5% in data set [3] (day 21). Moreover, the “Swelling percent of right hind paw” value was 118.4± 6.0% in data set [3] (day 0); 97.3± 6.5% in data set [3] (day 1); 232.7±17.8% in data set [3] (day 4); 200.3±22.5% in data set [3] (day 7); 167.2±19.0% in data set [3] (day 10); 175.0±18.6% in data set [3] (day 14). Also, the “Swelling percent of right hind paw” value amounted to 174.2±18.6% in data set [3] (day 17) and 173.0±23.7% in data set [3] (day 21).

In the case of `CCC(NC(=O)[C@]1(C)CC[C@H](CCCC(C)C)CC1)C(=O)O` (stereo partly drawn) [Compound No. 12 (potassium salt)], in the data set “Emulsification test”, the “Separated volume of aqueous layer” value was 7.3 mL. Besides, the “Surface tension γ” value in data set [1] worked out at 44.5 dyn/cm.

Turning to `CC(C)CCC[C@H]1CC[C@@](C)(C(=O)N[C@H](C(=O)O)C(C)C)CC1` [compound 10], the inhibition in vivo at 100 mg/kg in data set [2] was found to be 9%.

Regarding `CC(C)CCC[C@H]1CC[C@@](C)(C(=O)NCC(=O)O)CC1` [Compound No. 2, N-(cis-4-isohexyl-1-methylcyclohexanecarbonyl)-glycine], the median lethal dose (LD50) at 504 h is approximately 10300 mg/kg in “Acute toxicity (rat)” (female rat) and approximately 11000 mg/kg in the data set “Acute toxicity (rat)” (male rat). The molecule further yielded an Inhibition in data set [4] (100 mg/kg) of 46%. Further, the inhibition in vivo at 100 mg/kg in data set [2] came to 41%. Moreover, the “inhibition (released histamine)” value in data set [5] is recorded as 73.0%.

Regarding `CC(C)CCC[C@H]1CC[C@@](C)(C(=O)NCCC(=O)O)CC1` [compound 6, N-(cis-4-isohexyl-1-methylcyclohexanecarbonyl)-β-alanine], the inhibition in vivo at 100 mg/kg in data set [2] worked out at 10%.

Regarding `CSCC[C@H](NC(=O)[C@]1(C)CC[C@H](CCCC(C)C)CC1)C(=O)O` [Compound No. 17 (triethanolamine salt)], the “Separated volume of aqueous layer” value in “Emulsification test” turned out to be 9.5 mL. Further, the “Surface tension γ” value in data set [1] is listed as 42.3 dyn/cm.

Molecule `CC(C)CCC[C@H]1CC[C@](C)(C(=O)O)CC1` [compound 20, trans-4-isohexyl-1-methylcyclohexanecarboxylic acid] came in with an inhibition in vivo at 100 mg/kg in data set [2] of 44%.

For `CC(C)CCC[C@H]1CC[C@@](C)(C(=O)NCCCCCC(=O)O)CC1` [compound 3, N-(cis-4-isohexyl-1-methylcyclohexanecarbonyl)-ε-aminocaproic acid], the inhibition in vivo at 100 mg/kg in data set [2] turned out to be 45%.

In data set [2], `CC(C)CCC[C@H]1CC[C@@](C)(C(=O)N[C@@H](CCC(N)=O)C(=O)O)CC1` [compound 14] gave an inhibition in vivo at 100 mg/kg of 7%.

In data set [4] (100 mg/kg), `CC1(C)[C@@H](O[C@H]2O[C@H](C(=O)O)[C@@H](O)[C@H](O)[C@H]2O[C@@H]2O[C@H](C(=O)O)[C@@H](O)[C@H](O)[C@H]2O)CC[C@]2(C)[C@H]3C(=O)C=C4[C@@H]5C[C@@](C)(C(=O)O)CC[C@]5(C)CC[C@@]4(C)[C@]3(C)CC[C@@H]12` [Glycyrrhizin, reference compound] had an Inhibition of 22%. Also, the “inhibition (released histamine)” value in data set [5] worked out at 8.0%.
